Measured values reported in ChEMBL document CHEMBL1126468, “Antineoplastic bicyclicsulfonylureas” (Bioorg Med Chem Lett, 1992).

System: not listed separately
Assay: Inhibition of tumor growth in 6C3HED lymphosarcoma inoculated mice following 150 mg/kg p.o. o.d.
Assay type: functional
Details: Mus musculus, route oral

Row | SMILES | inhibition in vivo at 150 mg/kg [%]
1 | Cc1coc2ccc(S(=O)(=O)NC(=O)Nc3ccc(Cl)cc3)cc12 | 44
2 | COc1ccc2oc(S(=O)(=O)NC(=O)Nc3ccc(Cl)cc3)cc2c1 | 25
3 | O=C(Nc1ccc(Cl)cc1)NS(=O)(=O)c1csc2ccccc12 | 43
4 | O=C(Nc1ccc(Br)cc1)NS(=O)(=O)c1cc2ccccc2o1 | 48
5 | Cc1ccc2oc(S(=O)(=O)NC(=O)Nc3ccc(Cl)cc3)cc2c1 | 6
6 | O=C(Nc1ccc(Cl)cc1)NS(=O)(=O)c1cccc2occc12 | 84
7 | Cc1cc2cc(S(=O)(=O)NC(=O)Nc3ccc(Cl)cc3)ccc2o1 | 57
8 | O=C(Nc1ccc(Cl)cc1)NS(=O)(=O)c1cc2cccc(Br)c2o1 | 18
9 | O=C(Nc1ccc(Cl)cc1)NS(=O)(=O)c1cc2ccccc2s1 | 47
10 | O=C(Nc1ccc(Cl)cc1)NS(=O)(=O)c1cc2ccccc2[nH]1 | 26
11 | O=C(Nc1ccc(Cl)cc1)NS(=O)(=O)c1cc2cc(Cl)ccc2o1 | 40
12 | Cc1cccc2cc(S(=O)(=O)NC(=O)Nc3ccc(Cl)cc3)oc12 | 21
13 | Cc1ccc(NC(=O)NS(=O)(=O)c2cc3ccccc3o2)cc1 | 11
14 | COc1cc(S(=O)(=O)NC(=O)Nc2ccc(Cl)cc2)cc2ccoc12 | 51
15 | Cc1ccc2sc(S(=O)(=O)NC(=O)Nc3ccc(Cl)cc3)cc2c1 | 10
16 | O=C(Nc1ccc(Cl)cc1)NS(=O)(=O)c1ccc2cc[nH]c2c1 | 37
17 | O=C(Nc1ccc(Cl)cc1)NS(=O)(=O)c1ccc2occc2c1 | 100
18 | Cc1cc(S(=O)(=O)NC(=O)Nc2ccc(Cl)cc2)cc2ccoc12 | 89
19 | Cc1ccc(NC(=O)NS(=O)(=O)c2ccc3occc3c2)cc1 | 84
20 | O=C(Nc1ccc(Cl)cc1)NS(=O)(=O)c1cc2ccccc2o1 | 84
21 | O=C(Nc1ccc(Cl)c(Cl)c1)NS(=O)(=O)c1cc2ccccc2o1 | 28

System: Mus musculus
Assay: Percent inhibition is the ratio of tumor weight of treated animals at a dose 80 mg/kg given daily to 8 mice perorally versus the untreated control mice infected with 6C3HED lymphosarcoma
Assay type: functional
Details: route oral

Row | SMILES | inhibition in vivo at 80 mg/kg [%]
22 | O=C(Nc1ccc(Cl)cc1)NS(=O)(=O)c1ccc2sccc2c1 | 44

System: Mus musculus
Assay: Percent inhibition is the ratio of tumor weight of treated animals at a dose 160 mg/kg given daily to 8 mice perorally versus the untreated control mice infected with 6C3HED lymphosarcoma
Assay type: functional
Details: route oral

Row | SMILES | inhibition in vivo at 160 mg/kg [%]
23 | O=C(Nc1ccc(Cl)cc1)NS(=O)(=O)c1ccc2ccoc2c1 | 100
